Test results reported in the NIST ThermoML archive (doi:10.1021/je020140j).

Columns and labels:
[1] = molar heat capacity at constant pressure; settings: 101 kPa, Liquid, Small sample (50 mg) DSC
[2] = 101 kPa, Liquid
[3] = molar heat capacity at constant pressure; xn = mol fraction of the nth substance listed; settings: 101 kPa, Liquid, Small sample (50 mg) DSC, x2 = 0
[4] = xn = mol fraction of the nth substance listed; settings: 101 kPa, Liquid, x2 = 0

OCCO [1,2-ethanediol]
Settings	mass density, [2] [kg/m3]	molar heat capacity at constant pressure, [1] [J/K/mol]	viscosity, [2] [mPa·s]
293.15 K	1113.7	147.47	20.83
303.15 K	–	149.71	13.65
313.15 K	1093.6	152	9.443
323.15 K	1084.7	153.8	6.992
333.15 K	1076.4	156.22	5.06
343.15 K	1067.5	159.7	3.987
353.15 K	1060	161	3.021
363.15 K	–	164.98	–
373.15 K	–	168.45	–

O [water] + OCCO
Settings	mass density, [4] [kg/m3]	molar heat capacity at constant pressure, [3] [J/K/mol]	viscosity, [4] [mPa·s]
293.15 K	–	75.29	1.002
303.15 K	–	75.38	0.797
313.15 K	–	75.21	0.653
323.15 K	–	75.23	0.547
333.15 K	983.2	75.21	0.467
343.15 K	977.8	75.32	0.405
353.15 K	971.8	75.48	0.356
